Several values for one entry are separate records, joined by “and”; a condition that tells them apart may be missing. Equal values may be shown once. Read-outs that look alike come from different tables or passages of the source.
Key:
[1] = system: glutamate-induced neurotoxicity in ESNs; format: cell-based, mouse
ESNs [2] = format: cell-based, mouse
ESNs [3] = experiment: cells; format: cell-based, mouse; conditions: read-out: EC50 of loss of viability (metabolic activity)
ESNs [4] = format: cell-based, mouse; remark: listed apart in the source
ESNs [5] = format: cell-based, mouse; remark: listed apart in the source
ESNs [6] = conditions: mouse
VAMP2 = VAMP2 (Mus musculus, UniProt P63044); format: cell-based
ESNs [7] = format: cell-based, mouse; conditions: read-out: EC50 for Ca^2+ uptake
BoNT/A-intoxicated ESNs = format: cell-based, mouse
ESNs [8] = format: cell-based, mouse; remark: listed apart in the source
[9] = system: Ca^2+ influx through LTX pores; format: cell-based, mouse
ESNs [10] = format: cell-based, mouse; remark: listed apart in the source

Chain of VAMP2 (P63044 2-116 limits assumed): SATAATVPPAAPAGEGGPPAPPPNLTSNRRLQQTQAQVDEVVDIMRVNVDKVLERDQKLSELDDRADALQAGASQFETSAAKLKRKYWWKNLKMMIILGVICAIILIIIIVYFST

N[C@H](CCCP(=O)(O)O)C(=O)O [APV, R-2-amino-5-phosphonopentanoate]
effect on NMDA-induced neurotoxicity [1]: blocked in a dose-dependent manner
effect on glutamate-induced cell death [1]: prevented glutamate-induced cell death in a dose-dependent manner

N#Cc1cc2c(cc1[N+](=O)[O-])=NC(=O)C(=O)N=2 [CNQX, 6-cyano-7-nitroquinoxaline-2,3-dione]
effect on glutamate-induced cell death [1]: not protective

NCCCC(=O)O [GABA, γ-aminobutyric acid]
acute Ca^2+ uptake (ESNs [2]): no effect

CN[C@H](CC(=O)O)C(=O)O [NMDA, N-methyl-D-aspartate]
EC50 (ESNs [3]): 390 nM

N[C@@H](CCC(=O)O)C(=O)[O-].[Na+] [glutamate, Mono-sodium glutamate]
Normalize log2 (FC) Casp4 (ESNs [4]): 2.96
Normalize log2 (FC) Casp6 (ESNs [4]): 2.15
Normalize log2 (FC) Casp12 (ESNs [4]): 3.03
Normalize log2 (FC) Cdk1 (ESNs [4]): 3.11
Normalize log2 (FC) CflaR (ESNs [4]): 2.54
Normalize log2 (FC) Dap1 (ESNs [4]): 2.84
Normalize log2 (FC) Dapk2 (ESNs [4]): 4.18
Normalize log2 (FC) Dram1 (ESNs [4]): 2.63
Normalize log2 (FC) Fadd1 (ESNs [4]): 1.98
Normalize log2 (FC) Grin1 (ESNs [4]): 0.39
Normalize log2 (FC) Pawr (ESNs [4]): 3.49
Normalize log2 (FC) Snap25 (ESNs [4]): −0.52
Normalize log2 (FC) Traf1 (ESNs [4]): 5.02
EC50 (ESNs [3]; Mus musculus, 24 h): 410 nM
duration of evoked series of action potentials (ESNs [5]): 5 to 10 s
concentration at which primary necrosis was first observed (ESNs [6]): 3000 µM

NCc1cc(=O)[nH]o1 [muscimol]
GABA-A receptor current (ESNs [5]): evokes a strong outward Cl− current

Tetanospasmin neurotoxin [tetanus]
VAMP2 signal by immunoblot (VAMP2): nearly complete loss of VAMP2 signal

gadolinium chloride [Gd^3+]
effect on glutamate-induced cell death [1]: no effect on viability
elimination of acute glutamate-evoked Ca^2+ signal (ESNs [2]): over 95%

α-Latrotoxin [LTX]
EC50 (ESNs [7]): 0.175 nM
rescue of full-length SNAP-25 (BoNT/A-intoxicated ESNs): 92±4.6% and 98±1.7%
delay between addition and onset of Fluo-4 fluorescence (ESNs [8]): 1.5 min
Ca^2+ influx, normalized to LTX (%) [9]: 100.0%
decrease of total protein yield compared to controls (ESNs [10]): 44±16% and 52±19%
decrease of total protein yield relative to untreated cultures (ESNs [10]): approximately 50%

Reference: patent US20150153325A1 (priority 2012, published 2015)
